Assay [1] deals with T1, human GLP-1 receptor (Homo sapiens, UniProt P43220).
T1 construct: expressed in transfected cells; host or cells: BHK (parent line BHKTS13), clone BHK CRE luc2P hGLP-1R
Nature of the assay: In vitro functional potency, CRE luciferase reporter gene assay, whole BHK cells expressing hGLP-1R. The assay is classed as cell-based. Particulars: BHK CRE luc2P hGLP-1R cells.

The target in assay [2] is T2, human GIP receptor (Homo sapiens, UniProt P48546).
T2 construct: expressed in transfected cells; host or cells: BHK (parent line BHKTS13), clone BHK CRE luc2P hGIPR
T2 sequence (P48546 22-466): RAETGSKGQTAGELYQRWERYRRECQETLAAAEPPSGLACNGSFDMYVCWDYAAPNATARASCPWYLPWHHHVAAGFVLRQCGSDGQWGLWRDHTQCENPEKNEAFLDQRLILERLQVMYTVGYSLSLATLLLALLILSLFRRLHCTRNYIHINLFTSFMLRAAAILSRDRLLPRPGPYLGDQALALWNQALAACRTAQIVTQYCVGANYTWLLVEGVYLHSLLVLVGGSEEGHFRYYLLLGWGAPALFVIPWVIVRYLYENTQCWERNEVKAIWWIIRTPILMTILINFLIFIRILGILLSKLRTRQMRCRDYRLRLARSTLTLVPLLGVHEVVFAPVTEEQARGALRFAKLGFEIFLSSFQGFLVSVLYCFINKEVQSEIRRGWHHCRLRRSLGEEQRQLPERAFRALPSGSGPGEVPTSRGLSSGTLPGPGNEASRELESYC
Nature of the assay: In vitro functional potency, CRE luciferase reporter gene assay, whole BHK cells expressing hGIPR. The assay is classed as cell-based. The following applies: BHK CRE luc2P hGIPR cells.

Where two headings read alike, the source gives them in different places. Starred links: 1 amine or outer side, 2 acyl side, 3 side chain; linkers in the order of their positions; H or OH if unused. Non-standard residues stand in square brackets, D forms with d. Residues, ends and D or L forms follow the SMILES beside them. Groups on a side chain read outwards from the residue. *: point of attachment. C18 diacid = O=C(O)CCCCCCCCCCCCCCCCC(=O)*; γGlu = O=C(O)[C@H](CCC(=O)[*:2])N[*:1]; εLys = N[C@@H](CCCCN[*:1])C(=O)[*:2]; Aib = CC(C)(N)C(=O)O

T1 sequence (P43220 24-463): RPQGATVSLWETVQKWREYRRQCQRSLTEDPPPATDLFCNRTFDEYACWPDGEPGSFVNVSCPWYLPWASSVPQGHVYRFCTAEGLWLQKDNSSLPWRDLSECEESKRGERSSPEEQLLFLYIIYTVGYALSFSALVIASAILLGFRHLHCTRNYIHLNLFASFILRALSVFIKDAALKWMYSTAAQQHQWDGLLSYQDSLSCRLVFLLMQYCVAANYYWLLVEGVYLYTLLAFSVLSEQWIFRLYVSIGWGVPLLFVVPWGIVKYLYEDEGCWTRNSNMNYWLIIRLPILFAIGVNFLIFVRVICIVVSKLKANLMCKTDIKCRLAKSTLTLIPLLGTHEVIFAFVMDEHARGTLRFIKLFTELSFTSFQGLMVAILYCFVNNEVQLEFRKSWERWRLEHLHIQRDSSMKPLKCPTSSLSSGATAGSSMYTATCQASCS

In the case of `CC[C@H](C)[C@H](NC(=O)[C@H](Cc1ccccc1)NC(=O)[C@H](CCC(=O)O)NC(=O)[C@H](CCCNC(=N)N)NC(=O)[C@H](C)NC(=O)[C@H](C)NC(=O)[C@H](CCC(N)=O)NC(=O)[C@H](CCCCNC(=O)[C@@H](N)CCCCNC(=O)[C@@H](N)CCCCNC(=O)CC[C@H](NC(=O)CCCCCCCCCCCCCCCCC(=O)O)C(=O)O)NC(=O)[C@H](CCC(=O)O)NC(=O)[C@H](CC(C)C)NC(=O)[C@H](CC(C)C)NC(=O)[C@@H](NC(=O)[C@H](CO)NC(=O)[C@H](Cc1ccc(O)cc1)NC(=O)[C@H](CC(=O)O)NC(=O)[C@H](CO)NC(=O)[C@@H](NC(=O)[C@H](Cc1ccccc1)NC(=O)[C@@H](NC(=O)CNC(=O)[C@H](CCC(=O)O)NC(=O)C(C)(C)NC(=O)[C@@H](N)Cc1ccc(O)cc1)[C@@H](C)O)[C@@H](C)O)[C@@H](C)CC)C(=O)N[C@@H](CC(N)=O)C(=O)N[C@@H](Cc1c[nH]c2ccccc12)C(=O)N[C@@H](CC(C)C)C(=O)N[C@@H](CC(C)C)C(=O)N[C@@H](C)C(=O)NCC(=O)NCC(=O)N1CCC[C@H]1C(=O)N[C@@H](CO)C(=O)N[C@@H](CO)C(=O)NCC(=O)N[C@@H](C)C(=O)N1CCC[C@H]1C(=O)N1CCC[C@H]1C(=O)N1CCC[C@H]1C(=O)N[C@@H](CO)C(=O)O` [Compound No. 15] (H-Y[Aib]EGTFTSDYSILLEK([εLys-εLys-γGlu-C18 diacid])QAAREFINWLLAGGPSSGAPPPS-OH), the 50% effective concentration (EC50) turned out to be 0.005 nM in assay [1] (0% HSA, read-out: hGLP-1R, CRE Luc 0% HSA EC50); 0.13 nM in assay [1] (hGLP-1R, CRE Luc 1% HSA EC50, 1% HSA); 0.0071 nM in assay [2] (0% HSA, read-out: hGIPR, CRE Luc 0% HSA EC50); 0.138 nM in assay [2] (hGIPR, CRE Luc 1% HSA EC50, 1% HSA).

For the origin of these results see patent US20230120597A1, “CO-AGONISTS AT GLP-1 AND GIP RECEPTORS SUITABLE FOR ORAL DELIVERY” (Novo Nordisk A/S, priority 2020, published 2023).
